One data set has as its system MV4;11 cells. In words: Proliferation assay, MV4;11 (CellTiter-Glo, 7 days). The format is cell-based, human. The conditions noted are these: read-out: MV-4-11 IC50. Put shortly:
(§1)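 Cells were seeded at line-specific low densities for linear growth, exposed to 3.16-fold serial compound dilutions at 0.1% DMSO, and incubated 7 days at 37 °C, 5% CO2. Viability was read by CellTiter-Glo 2.0 luminescence; IC50 came from one-site fits of % inhibition, normalized between DMSO-treated cells (100%) and a day-0 plate (0%).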

The target in the next data set is hERG (Homo sapiens (Human), UniProt Q12809). In words: hERG assay 1 (standard), SyncroPatch 384PE. The format is cell-based. The following applies: CHO cells, room temperature, up to 40 uM. Put shortly:
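Automated patch clamp on hERG-expressing CHO-K1 cells at room temperature, +60/−40 mV protocol every 15 s. Six-point cumulative concentrations 139 nM to 40 uM (0.33% DMSO final); IC50 from one-site fit of % inhibition. Wells required ≥30 MegaOhm seal, current >0.2 nA, Z prime >0.4.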

The subject of another data set is MOLM-13 cells. In words: Proliferation assay, MOLM-13 (CellTiter-Glo, 7 days). Type of data set: cell-based, human. Put shortly: as §1
Data set [1] in a line: Human liver microsomes (HLMs) intrinsic clearance assay. Type of data set: in vitro ADME.
The mark [2] stands for this setting: human, microsomes, pH 7.4, HLM CLint.
Setting [3] is: human, microsomes, 1 µM, pH 7.4.

Where two headings read alike, the source gives them in different places.

Sequence of hERG (Q12809 whole entry): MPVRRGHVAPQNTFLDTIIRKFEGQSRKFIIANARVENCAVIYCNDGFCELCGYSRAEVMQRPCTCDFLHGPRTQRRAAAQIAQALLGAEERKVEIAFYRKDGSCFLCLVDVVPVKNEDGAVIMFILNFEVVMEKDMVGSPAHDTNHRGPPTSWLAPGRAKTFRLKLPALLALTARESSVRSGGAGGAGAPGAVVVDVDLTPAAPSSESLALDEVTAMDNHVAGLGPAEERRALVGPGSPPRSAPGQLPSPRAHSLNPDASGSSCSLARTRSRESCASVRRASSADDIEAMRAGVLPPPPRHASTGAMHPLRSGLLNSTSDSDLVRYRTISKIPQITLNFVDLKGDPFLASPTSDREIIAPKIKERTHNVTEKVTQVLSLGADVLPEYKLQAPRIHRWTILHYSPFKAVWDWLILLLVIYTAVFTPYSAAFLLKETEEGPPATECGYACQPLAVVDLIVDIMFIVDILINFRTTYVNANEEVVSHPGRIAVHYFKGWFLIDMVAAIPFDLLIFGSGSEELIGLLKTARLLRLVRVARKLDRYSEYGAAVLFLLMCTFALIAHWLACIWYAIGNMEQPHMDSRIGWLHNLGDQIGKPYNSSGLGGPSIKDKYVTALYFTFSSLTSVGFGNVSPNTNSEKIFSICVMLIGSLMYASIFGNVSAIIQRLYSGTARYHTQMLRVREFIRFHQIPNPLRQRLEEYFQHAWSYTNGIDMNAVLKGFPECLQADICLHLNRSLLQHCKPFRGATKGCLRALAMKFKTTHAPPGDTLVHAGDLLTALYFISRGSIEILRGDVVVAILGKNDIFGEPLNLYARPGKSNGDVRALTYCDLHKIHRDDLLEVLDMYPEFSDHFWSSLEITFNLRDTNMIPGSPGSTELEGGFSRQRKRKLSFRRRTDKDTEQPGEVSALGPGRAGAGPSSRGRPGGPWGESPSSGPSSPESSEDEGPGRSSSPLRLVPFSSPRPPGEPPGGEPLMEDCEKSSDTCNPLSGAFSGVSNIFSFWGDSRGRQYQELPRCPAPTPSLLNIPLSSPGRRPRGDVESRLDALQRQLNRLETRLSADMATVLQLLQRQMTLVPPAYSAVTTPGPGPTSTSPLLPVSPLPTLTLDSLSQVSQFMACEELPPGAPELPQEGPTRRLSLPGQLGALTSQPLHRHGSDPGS

As to `COCCN(C)CCC[C@H](C(C)C)N1CCC(C(=O)c2cn(-c3ccc(F)cc3C(=O)N(C(C)C)C(C)C)c3cnccc23)CC1` (racemic) [Example 23, rac-(R)-5-Fluoro-N,N-diisopropyl-2-(3-(1-(6-((2-methoxyethyl)(methyl)amino)-2-methylhexan-3-yl)piperidine-4-carbonyl)-1H-pyrrolo[2,3-c]pyridin-1-yl)benzamide], the IC50 worked out at 20 nM with MV4;11 cells (Homo sapiens, MV4-11, 168 h); 30600 nM against hERG; 37 nM with MOLM-13 cells (Homo sapiens, MOLM-13, 168 h). For the same molecule, the microsomal CLint at 1 µM in data set [1] (setting [2]) amounted to 156 µL/min/mg.
Taken in the same sequence, the figures for `CC(C)N(C(=O)c1cc(F)ccc1-n1cc(C(=O)C2CCN(C(=O)[C@H]3NC[C@@H]4CC[C@@H]43)CC2)c2ccncc21)C(C)C` (relative stereo) [Example 25, rel-2-(3-(1-((1R,2R,5S)-3-Azabicyclo[3.2.0]heptane-2-carbonyl)piperidine-4-carbonyl)-1H-pyrrolo[2,3-c]pyridin-1-yl)-5-fluoro-N,N-diisopropylbenzamide] were 24 nM, > 40000 nM, 50 nM and 94 µL/min/mg.
On to `Cc1c(C(=O)C2CCN(C(=O)[C@@H]3CCC(C)(C)N3)CC2)c2ccncc2n1-c1ccc(F)cc1C(=O)N(C(C)C)C(C)C` (single isomer, unassigned) [Compound 56-2], for which the IC50 with MV4;11 cells (Homo sapiens, MV4-11, 168 h) is 35 nM; against hERG, > 40000 nM; with MOLM-13 cells, 40 nM. Moreover, the “HLM CLint” value in data set [1] (setting [3]) stood at 91 µL/min/mg.
With `CCN(C(=O)c1cc(F)ccc1-n1c(C)c(C(=O)C2CCN(C(=O)[C@H]3NC[C@@H]4C[C@@H]43)CC2)c2ccncc21)C(C)C` (single isomer, unassigned) [Example 48-1], the IC50 was > 40000 nM against hERG and 1250 nM with MOLM-13 cells. For the same molecule, in data set [1] (setting [3]), the “HLM CLint” value was found to be 69 µL/min/mg.
As to `CCN(C(=O)c1cc(F)ccc1-n1c(C)c(C(=O)C2CCN(C(=O)[C@H]3NC[C@@H]4C[C@@H]43)CC2)c2ccncc21)C(C)C` (single isomer, unassigned) [Example 48-2], the values for the IC50 in the data set with MV4;11 cells, against hERG and in the data set on MOLM-13 cells were 29 nM, > 40000 nM and 27 nM, respectively. Also, the “HLM CLint” value in data set [1] (setting [3]) amounted to 55 µL/min/mg.
With `CCN(C(=O)c1cc(F)ccc1-n1c(C)c(C(=O)C2CCN(C(=O)[C@@H]3CCC4(CC4)N3)CC2)c2ccncc21)C(C)C` (single isomer, unassigned) [Example 49-2], the IC50 in the data set on MV4;11 cells was 34 nM; on hERG it was > 38000 nM; in the data set with MOLM-13 cells it was 80 nM. The “HLM CLint” value in data set [1] (1 mg/mL HLM, NADPH) was 127 µL/min/mg.
With `CCN(C(=O)c1cc(F)ccc1-n1c(C)c(C(=O)C2CCN(C(=O)[C@@H]3CCC(C)(C)N3)CC2)c2ccncc21)C(C)C` (single isomer, unassigned) [Example 50-2], the IC50 with MV4;11 cells (Homo sapiens, MV4-11, 168 h) is 39 nM; at hERG, > 40000 nM; with MOLM-13 cells, 44 nM. For the same molecule, the “HLM CLint” value in data set [1] (setting [3]) worked out at 48 µL/min/mg.
Consider `Cc1c(C(=O)C2CCN(C(=O)[C@H]3NC[C@@H]4C[C@@H]43)CC2)c2ccncc2n1-c1ccc(F)cc1C(=O)N(CC(F)(F)F)C(C)C` (single isomer, unassigned) [Example 51-1], for which the half-maximal inhibitory concentration (IC50) on hERG was > 40000 nM; with MOLM-13 cells it was 1610 nM. The molecule also yielded a microsomal CLint at 1 µM in data set [1] (setting [2]) of 54 µL/min/mg.
Regarding `Cc1c(C(=O)C2CCN(C(=O)[C@H]3NC[C@@H]4C[C@@H]43)CC2)c2ccncc2n1-c1ccc(F)cc1C(=O)N(CC(F)(F)F)C(C)C` (single isomer, unassigned) [Example 51-2], the IC50 in the data set on MV4;11 cells (Homo sapiens, MV4-11, 168 h) was 29 nM; against hERG, > 40000 nM; in the data set on MOLM-13 cells it was 31 nM. Besides, in data set [1] (setting [3]), the “HLM CLint” value is 52 µL/min/mg.
Consider `CCN(C(=O)c1cc(F)ccc1-n1c(C)c(C(=O)[C@@H]2CCN(C(=O)[C@@H]3CCC4(CC4)N3)[C@@H](C)C2)c2ccncc21)C(C)C` (single isomer, unassigned) [Example 52-1, N-Ethyl-5-fluoro-N-isopropyl-2-(2-methyl-3-((2R*,4S*)-2-methyl-1-((S)-4-azaspiro[2.4]heptane-5-carbonyl)piperidine-4-carbonyl)-1H-pyrrolo[2,3-c]pyridin-1-yl)benzamide], for which, in the data set on MV4;11 cells, the IC50 amounted to 22 nM. Besides, the microsomal CLint at 1 µM in data set [1] (human, microsomes, pH 7.4, 1 mg/mL HLM, NADPH, read-out: HLM CLint) worked out at 150 µL/min/mg.
Consider `CCN(C(=O)c1cc(F)ccc1-n1c(C)c(C(=O)[C@@H]2CCN(C(=O)[C@@H]3CCC4(CC4)N3)[C@@H](C)C2)c2ccncc21)C(C)C` (single isomer, unassigned) [Example 52-2, N-Ethyl-5-fluoro-N-isopropyl-2-(2-methyl-3-((2R*,4S*)-2-methyl-1-((S)-4-azaspiro[2.4]heptane-5-carbonyl)piperidine-4-carbonyl)-1H-pyrrolo[2,3-c]pyridin-1-yl)benzamide], for which the IC50 in the data set with MV4;11 cells stood at 56 nM; against hERG, 14200 nM; in the data set on MOLM-13 cells, 48 nM. The “HLM CLint” value in data set [1] (1 mg/mL HLM, NADPH) is 150 µL/min/mg.
Take `Cc1c(C(=O)C2CCN(C(=O)[C@@H]3CCC(C)(C)N3)CC2)c2ccncc2n1-c1ccc(F)cc1C(=O)N(C(C)C)C(C)C` (single isomer, unassigned) [Example 56-1]: the IC50 at hERG is > 40000 nM; in the data set on MOLM-13 cells it was 1930 nM. The same molecule showed a microsomal CLint at 1 µM in data set [1] (setting [2]) of 133 µL/min/mg.
For the molecule `Cc1c(C(=O)[C@@H]2CCN(C(=O)[C@@H]3CC[C@H](C)N3)[C@@H](C)C2)c2ccncc2n1-c1ccc(F)cc1C(=O)N(C(C)C)C(C)C` (stereo in doubt) [Example 62, 5-Fluoro-N,N-diisopropyl-2-(2-methyl-3-((2S,4RS)-2-methyl-1-((2S,5S)-5-methylpyrrolidine-2-carbonyl)piperidine-4-carbonyl)-1H-pyrrolo[2,3-c]pyridin-1-yl)benzamide], the IC50 was > 40000 nM at hERG and 52 nM in the data set with MOLM-13 cells (Homo sapiens, MOLM-13, 168 h). This molecule showed a microsomal CLint at 1 µM in data set [1] (setting [2]) of 12 µL/min/mg.
As to `CCN(C(=O)c1cc(F)ccc1-n1c(C)c(C(=O)[C@@H]2CCN(C(=O)[C@@H]3CC[C@H](C)N3)[C@@H](C)C2)c2ccncc21)C(C)C` (stereo in doubt) [Example 63, N-Ethyl-5-fluoro-N-isopropyl-2-(2-methyl-3-((2S,4RS)-2-methyl-1-((2S,5S)-5-methylpyrrolidine-2-carbonyl)piperidine-4-carbonyl)-1H-pyrrolo[2,3-c]pyridine-1-yl)benzamide], the IC50 was > 40000 nM against hERG and 47 nM with MOLM-13 cells (Homo sapiens, MOLM-13, 168 h). This molecule also registered a microsomal CLint at 1 µM in data set [1] (setting [2]) of 63 µL/min/mg.
Taken in the same sequence, the figures for `Cc1c(C(=O)[C@@H]2CCN(C(=O)[C@@H]3CC[C@@H](C)N3)[C@@H](C)C2)c2ccncc2n1-c1ccc(F)cc1C(=O)N(C(C)C)C(C)C` (stereo in doubt) [Example 64, 5-Fluoro-N,N-diisopropyl-2-(2-methyl-3-((2S,4RS)-2-methyl-1-((2S,5R)-5-methylpyrrolidine-2-carbonyl)piperidine-4-carbonyl)-1H-pyrrolo[2,3-c]pyridin-1-yl)benzamide] were 32700 nM, 53 nM and 88 µL/min/mg.
On the same counts, the results for `CCN(C(=O)c1cc(F)ccc1-n1c(C)c(C(=O)[C@@H]2CCN(C(=O)[C@@H]3CC[C@@H](C)N3)[C@@H](C)C2)c2ccncc21)C(C)C` (stereo in doubt) [Example 65, N-Ethyl-5-fluoro-N-isopropyl-2-(2-methyl-3-((2S,4RS)-2-methyl-1-((2S,5R)-5-methylpyrrolidine-2-carbonyl)piperidine-4-carbonyl)-1H-pyrrolo[2,3-c]pyridin-1-yl)benzamide] are > 40000 nM, 56 nM and 55 µL/min/mg.
Turning to `CC(C)N(C(=O)c1cc(F)ccc1-n1cc(C(=O)C2CN(C(=O)[C@H]3NC4CCC3CC4)C2)c2ccncc21)C(C)C` [Example 6, (S)-2-(3-(1-(2-Azabicyclo[2.2.2]octane-3-carbonyl)azetidine-3-carbonyl)-1H-pyrrolo[2,3-c]pyridin-1-yl)-5-fluoro-N,N-diisopropylbenzamide], the IC50 in the data set with MV4;11 cells (Homo sapiens, MV4-11, 168 h) was 46 nM; in the data set on MOLM-13 cells (Homo sapiens, MOLM-13, 168 h) it was 73 nM. Further, in data set [1] (setting [2]), the microsomal CLint at 1 µM amounted to 40 µL/min/mg.
On the same counts, the results for `CCN(C(=O)c1cc(F)ccc1-n1cc(C(=O)C2CN(C(=O)[C@H]3NC4CCC3CC4)C2)c2ccncc21)C(C)C` [Example 9, (S)-2-(3-(1-(2-Azabicyclo[2.2.2]octane-3-carbonyl)azetidine-3-carbonyl)-1H-pyrrolo[2,3-c]pyridin-1-yl)-N-ethyl-5-fluoro-N-isopropylbenzamide] are 100 nM, 121 nM and 27 µL/min/mg.
Take `CC(C)c1ncsc1-c1cc(F)ccc1-n1cc(C(=O)C2CN(C(=O)[C@H]3N[C@@H]4CC[C@H]3C4)C2)c2ccncc21.O=CO` [Example 12, (1-((1R,3S,4S)-2-Azabicyclo[2.2.1]heptane-3-carbonyl)azetidin-3-yl)(1-(4-fluoro-2-(4-isopropylthiazol-5-yl)phenyl)-1H-pyrrolo[2,3-c]pyridin-3-yl)methanone 1·formic acid]: the IC50 against hERG is > 40000 nM; with MOLM-13 cells (Homo sapiens, MOLM-13, 168 h) it was 102 nM. The microsomal CLint at 1 µM in data set [1] (setting [2]) was 216 µL/min/mg.
Taken in the same sequence, the figures for `CC(C)c1ccncc1-c1cc(F)ccc1-n1cc(C(=O)C2CCN(C(=O)[C@H]3N[C@@H]4CC[C@H]3C4)CC2)c2ccncc21` [Example 41, (1-((1R,3S,4S)-2-Azabicyclo[2.2.1]heptane-3-carbonyl)piperidin-4-yl)(1-(4-fluoro-2-(4-isopropylpyridin-3-yl)phenyl)-1H-pyrrolo[2,3-c]pyridin-3-yl)methanone] were > 40000 nM, 42 nM and 180 µL/min/mg.

Source of the values: patent publication US20240335431A1, “1-H-PYRROLO[2,3-c]PYRIDINE COMPOUNDS” (Acerta Pharma B.V., priority 2023, published 2024).
